For the assay, the target named is Neuraminidase (Influenza A virus, UniProt B4URF0). Details: species or system unidentified adenovirus.
Chain of Neuraminidase (B4URF0 whole entry): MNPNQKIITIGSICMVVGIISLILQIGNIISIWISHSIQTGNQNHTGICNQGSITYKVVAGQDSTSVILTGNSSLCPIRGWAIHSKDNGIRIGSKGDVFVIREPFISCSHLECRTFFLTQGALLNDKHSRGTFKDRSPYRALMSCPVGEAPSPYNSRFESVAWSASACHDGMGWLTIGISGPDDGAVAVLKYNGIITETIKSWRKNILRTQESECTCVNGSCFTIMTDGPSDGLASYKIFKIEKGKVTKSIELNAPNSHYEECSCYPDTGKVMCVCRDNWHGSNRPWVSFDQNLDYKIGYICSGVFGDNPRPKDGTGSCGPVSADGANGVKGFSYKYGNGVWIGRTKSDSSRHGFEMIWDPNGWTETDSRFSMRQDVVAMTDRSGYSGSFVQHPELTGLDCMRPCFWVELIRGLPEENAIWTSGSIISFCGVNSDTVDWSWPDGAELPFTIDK

On to `CCC(CC)[C@H](NC(C)=O)[C@@H]1[C@H](O)[C@@H](C(=O)O)C[C@H]1NC(=N)N` [PERAMIVIR ANHYDROUS], for which the IC50 came out at 0.1 nM.

For orientation: IC50 means the concentration needed to halve the response being measured. Higher therefore signals a need for much substance.

For the origin of these results see ChEMBL document CHEMBL3596116, “Conformational analysis of peramivir reveals critical differences between free and enzyme-bound states” (Medchemcomm, 2014).
